This note sets out measurements from patent publication US7642367B2, “Diamino-functional chalcones” (Lica Pharmaceuticals A/S, priority 2002, dated 2010).

Usually pIC50 stands for the IC50 on a negative log10 scale, so that one unit is a factor of ten. By Solubility is commonly meant the dissolved amount per volume that the medium holds. Read a high Solubility as a readily soluble substance. What is called bioavailability is dose-corrected exposure relative to a reference, in per cent. Higher therefore signals good availability.

pIC50: −log10 of the molar value. Converted amounts (≈) assume the structure as drawn. Like-named read-outs stand apart in the source and are kept apart here.

Series [1] relates to Plasmodium falciparum 3D7. Kind of series: Plasmodium falciparum assay (3H-phenylalanine labelling). Format: cell-based.
The nature of series [2]: Determination of metabolic stability (liver microsomes). The class given is in vitro ADME, Wistar rat. The settings on record: for Metabolic turn-over in vitro: rat liver microsomes, 20 μM, 15 min at 37° C. As for the experimental part:
incubations were performed with Wistar rat liver microsomes (0.25 mg/ml) in 2% sodium bicarbonate solution. NADP (0.13 mg/ml), glucose-6-phosphate (0.63 mg/ml) and glucose-6-phosophate dehydrogenase (0.38 units/ml) were used as NADPH generation system and UDPGA (0.48 mg/ml) was added to include the phase II reaction, glucuronic acid conjugation, in the assay. After 5 minutes of pre-incubation the reaction was started by addition of the test article to give a final concentration of 20 μM. Samples were incubated for 15 min at 37° C. and the reactions were terminated by addition of equal volumes of acetonitrile. Blank incubations were performed at the same concentration but without addition of microsomes. Both blank and microsome-containing samples were made in replicats of three. Prior to analysis samples were centrifuged for 10 min. at 3500 rpm, HPLC system:
Initial conditions were 40% mobile phase A (acetonitrile) and 60% mobile phase B (10 mM ammonium acetate pH 9.5). During the first 20 minutes, the mobile phase was changed via a linear gradient to 90% A and 10% B. This was followed by a 5 minutes linear gradient to initial conditions, which were maintained for 5 min. The flow rate was 0.20 ml/min and injection volume 10 μl.

The nature of series [3]: Determination of solubility in phosphate buffer pH 7.4. Format: physicochemical. To be noted: aqueous buffer at pH 7.4. The procedure: Solubility of the compounds was determined by preparing a saturated solution of compound in 0.3 M phosphate buffer (pH 7.4±0.3) in a brown glass tube. The suspensions were rotated slowly for 24 hours. Aliquots were centrifuged for 10 minutes at 14.000 rpm and supernatants were diluted in 40% (v/v) acetonitrile in water prior to HPLC analysis. Concentrations of analytes were quantified against a standard curve and used as term of solubility.
The HPLC-UV method used for the assessment of solubility is the same as used in the in vitro metabolism assay.

Series [4] relates to Plasmodium berghei K173. Kind of series: Multiple intra venous administration in Plasmodium berghei K173 infected mice. Format: in vivo. The settings on record: Plasmodium berghei K173 infected NMRI female mice, multiple intra venous administrations, FIG. 10. As for the experimental part: The doses stated were administered intra venously as solutions in a suitable vehicle.

For series [5] the following is noted: mice.
Series [6] relates to Plasmodium falciparum DD2 (Cq-res). The settings on record: read-out: Plasmodium falciparum IC50.
Series [7] has as its system Plasmodium falciparum 7G8 (Cq-res). The settings on record: read-out: Plasmodium falciparum IC50.
In series [8] the test system is Plasmodium falciparum K1 (Cq-res). To be noted: read-out: Plasmodium falciparum IC50.
For series [9] the following is noted: mice. This is another data set of the same source.
The test system of series [10] is Plasmodium berghei K173. The settings on record: Plasmodium berghei K173 infected NMRI female mice, multiple oral administrations, FIG. 8.

As for `CN(C)CCN(C)c1cccc(/C=C/C(=O)c2ccccc2CN(C)C)c1` [B074, (E)-3-{3-[(2-Dimethylamino-ethyl)-methyl-amino]-phenyl}-1-(2-dimethylaminomethyl-phenyl)-propenone], the pIC50 in series [1] (Plasmodium falciparum 3D7 (Table 2), read-out: IC50) is 6.22. For the same molecule, the “Metabolic turn-over in vitro” value in series [2] is listed as 0%. This molecule also came in with a Solubility in series [3] of 15400 µg/mL (≈ 42.1 mM). Further, the effect on parasitaemia entry in the series with Plasmodium berghei K173 [4] is “significant decrease in the parasitaemia”.
In [5], `COc1ccccc1-c1ccc(/C=C/C(=O)c2ccc(O)c(CN(C)C)c2)c(N2CCN(C)CC2)c1` [B098, (E)-1-(3-Dimethylaminomethyl-4-hydroxy-phenyl)-3-[2′-methoxy-3-(4-methyl-piperazin-1-yl)-biphenyl-4-yl]-propenone] returned a bioavailability of 50%.
Regarding `COc1ccc(C(=O)/C=C/c2cc(-c3ccccc3)cc(N3CCN(C)CC3)c2)c(CN(C)C)c1` [B111, (E)-1-(2-Dimethylaminomethyl-4-methoxy-phenyl)-3-[5-(4-methyl-piperazin-1-yl)-biphenyl-3-yl]-propenone], the pIC50 in series [1] (3D7 (Cq-sen) (Table 3), read-out: Plasmodium falciparum IC50) was 5.80; in series [6], 6.00; in series [7], 5.89; in [8] it was 6.00. Further, the “Metabolic turn-over in vitro” value in series [2] came to 4%. In [3], this molecule had a Solubility of 3100 µg/mL (≈ 6.6 mM).
Consider `Cc1ccccc1-c1cc(/C=C/C(=O)c2ccccc2CN(C)C)cc(N(C)CCN(C)C)c1` [B119, (E)-3-{5-[(2-Dimethylamino-ethyl)-methyl-amino]-2′-methyl-biphenyl-3-yl}-1-(2-dimethylaminomethyl-phenyl)-propenone], for which the “metabolism” value stood at 8.6% in [2] (rat) and 75% in series [9]. Moreover, the “Metabolic turn-over in vitro” value in series [2] was found to be 9%. Also, the “effect on infection (parasitaemia)” value with Plasmodium berghei K173 [10] was “inhibit the development of the infection”.
